For test [1], the system named is HLA-A*0201 transgenic mice. Nature of the test: ICS assay for CD8+ IFN-γ+ T cells in splenocytes of peptide-immunized mice. Type of test: in vivo, mouse. The note with it: mice immunized s.c. with peptide 50 μg/mouse in Freund's adjuvant, 5 weekly doses; splenocytes stimulated with cognate peptide 10 μg/ml, 6 h, brefeldin A; CD3+CD8+ gate; mean ± SD, 4 mice/group; SD. As for the experimental part:
(§1) HLA-A*0201 transgenic mice were subdivided into 12 groups (4 mice/group). Mice were inoculated subcutaneously with high-affinity peptide (50 μg/mouse) emulsified in Freund’s complete adjuvant. One week later, mice were immunized with the same peptide emulsified in Freund’s incomplete adjuvant. Mice were boosted three more times at weekly intervals. Mock-immunized (adjuvant alone) HLA-A*0201 transgenic mice and peptide-immunized C57BL/6 mice served as controls. One week after the final immunization, all mice were sacrificed and splenocytes extracted. ELISPOT and ICS assays were conducted to detect the frequencies of peptide-specific IFN-γ-producing cells. All animal were performed following the Institutional Animal Care and Use Committee-approved protocols.
Splenocytes were cultured with either cognate peptide (10 μg/ml) or heterologous peptide (10 μg/ml) in a 1.5 ml microcentrifuge tube for 6 h at 37°C/5% CO2. […] During the last 5 h, brefeldin A (10 μg/ml) was added to each tube. After a 6 h incubation, cells were washed and then stained with APC-conjugated anti-mouse CD3 and FITC-conjugated anti-mouse CD8 antibodies (eBioscience company, USA) for 40 min at 4°C. Cells were then washed and fixed with 4% paraformaldehyde for 20 min at 4°C, permeabilized using 0.5% saponin for 10 min at 4 °C, and stained with PE-conjugated anti-mouse IFN-γ antibody (eBioscience company, USA) for 40 min at 4°C. A FACS Calibur flow cytometer (BD Bioscience, USA) was used to analyze labeled cells. CD3^+ CD8^+ T cells were gated and the proportion of IFN-γ-producing CD8^+ T cells (CD8^+ IFN-γ^+ T cells) as a subset of all CD8^+ T cells were determined.

Test [2] has as its target HLA-A*0201 molecule of T2 cells (Homo sapiens, UniProt P04439, D140Y/D185E/D98H/E176V/E277Q/G131W/G231S/I119V/I121R/I166T/I218V/L300P/L318F/N151K/N90K/P208A/P217A/Q86G/Q94H/R138H/R169H/T345S). Description: MHC-peptide complex stabilization assay on T2 cells. Type of test: binding. The note with it: serum-free RPMI 1640, 1 h 37°C, 12 h 26°C, 3 h 37°C, FITC anti-HLA-A*0201, flow cytometry, FI = (MFI sample - MFI background)/MFI background. Set-up: key: FI = (MFI sample − MFI background) / MFI background. As for the experimental part:
Figure 1 The affinity of candidate epitopes for HLA-A*0201 molecules. T2 cells were incubated in RPMI 1640 medium lacking peptides (red) or containing low peptide (1 μg/ml) (green) or intermediate peptide (10 μg/ml) (purple) or high peptide (100 μg/ml) (blue) for 15 h and stained with FITC-conjugated anti-HLA-A*0201 antibody. Then, mean fluorescence intensity (MFI) was measured using flow cytometry.
The ability of peptides to stabilize MHC molecules on the surface of T2 cells was measured as described previously. T2 cells (2 × 10^5 cells/0.5 ml) were incubated in serum-free RPMI 1640 medium in the presence of different concentrations of peptide (1, 10, 100 μg/ml) for 1 h at 37°C/5% CO2 incubator. Cells were then incubated at 26°C for 12 h, and then returned to 37°C for a 3 h incubation. Finally, T2 cells were stained with FITC-conjugated anti-HLA-A*0201 antibody (BD Pharmingen, USA) for 40 min at 4°C. T2 cells incubated in serum-free RPMI 1640 medium without peptides served as a negative control (background). Mean fluorescence intensity (MFI) of T2 cells was recorded with a FACS Calibur flow cytometer (BD bioscience, USA), and results expressed as fluorescence index (FI). The following formula was used to calculate the FI.
(1) FI=MFI sample-MFI background/MFI background
(In general: Flow cytometry measures light scatter and fluorescence of single cells or particles in a stream.)

Test [3] relates to HLA-A*0201 transgenic mice. Nature of the test: IFN-γ ELISPOT assay on splenocytes of peptide-immunized mice. Type of test: in vivo. The following applies: mice immunized s.c. with peptide 50 μg/mouse in Freund's adjuvant, 5 weekly doses, splenocytes stimulated with cognate peptide 10 μg/ml, 24 h, background subtracted, mean ± SD, 4 mice/group. As for the experimental part:
as §1
Splenocytes were resuspended to a final concentration of 1 × 10^6 cells/ml in RPMI 1640 medium supplemented with 10% fetal bovine serum (FBS). ELISPOT assays were performed in pre-coated 96-well plates (U-CyTech Company, Netherlands). Splenocytes were seeded at 1 × 10^5 cells/well and exposed to either cognate or heterologous peptide at a final concentration of 10 μg/ml. Negative control wells contained splenocytes but no peptide. Positive control wells included cells plus phytohemagglutinin (PHA) at a final concentration of 10 μg/ml. All tests were carried out in duplicate wells, with plates incubated for 24 h at 37°C/5% CO2. Plates were washed and then incubated with biotinylated anti-mouse IFN-γ for 1 h at 37°C. After washing, plates were labeled with streptavidin-horseradish peroxidase, and developed using fresh ACE solution as a substrate. IFN-γ spots were counted using an ELISPOT reader (Beijing SageCreation Science Co. Ltd, Beijing, China). Peptide-specific T-cell frequency was expressed as SFCs/1 × 10^5 splenocytes. Background spots (negative control wells) were subtracted from test wells. A positive response to a peptide was defined as having > 5 SFCs/1 × 10^5 splenocytes after subtraction of the background.

As to “QLWTALVSL [D3V-NS2a144-152, D3V variant peptide of D1V-NS2a144-152, nonapeptide …]”, in test [1], the “ICS CD8^+IFN-γ^+T cells, proportion in CD8^+ T cells” value (shortened to “ICS CD8^+IFN-γ^+T cells, proportion”) is on record as 0.79 ± 0.15%. The “FI (fluorescence index)” value in test [2] (peptide 1 μg (1 μg/ml)) is given as 0.2; in test [2] (peptide 10 μg (10 μg/ml)), 0.45; in test [2] (peptide 100 μg (100 μg/ml)) it was 2.6; in test [2] (peptide 100 μg (100 μg/ml), listed as D3V-NS2a144–152), > 1. Further, in test [3], the “ELISPOT IFN-γ spot-forming cells” value amounted to 62 ± 9 SFCs/1×10^5cells.
“QVGTLALSL [D4V-NS2a143-151, D4V variant peptide of D1V-NS2a144-152, nonapeptide …]”: the “ICS CD8^+IFN-γ^+T cells, proportion” value in test [1] is on record as 0.13 ± 0.06%. Besides, the “FI (fluorescence index)” value turned out to be 0.22 in test [2] (peptide 1 μg (1 μg/ml)), 0.2 in test [2] (peptide 10 μg (10 μg/ml)) and 0.8 in test [2] (peptide 100 μg (100 μg/ml)). In test [3], the “ELISPOT IFN-γ spot-forming cells” value stood at 12 ± 3 SFCs/1×10^5cells.
As for “TILTIIGLI [D4V-NS4a140-148, D4V variant peptide of D1V-NS4a140-148, nonapeptide …]”, in test [1], the “ICS CD8^+IFN-γ^+T cells, proportion” value is recorded as 0.21 ± 0.05%. Also, the results for the “FI (fluorescence index)” value in test [2] (peptide 1 μg (1 μg/ml)), in test [2] (peptide 10 μg (10 μg/ml)) and in test [2] (peptide 100 μg (100 μg/ml)) were 0.15, 0.3 and 1.08, respectively. In addition, the “ELISPOT IFN-γ spot-forming cells” value in test [3] worked out at 17 ± 5 SFCs/1×10^5cells.

The record behind these values is publication PMC3546861, “HLA-A*0201-restricted CD8^+ T-cell epitopes identified in dengue viruses” (Virology Journal, 2012).
